Where a name gives a salt, the structure may show the parent alone. Read-outs that look alike come from different tables or passages of the source.
Key:
[1] = biological target: T1, α1B Human Adrenergic Receptor (Homo sapiens, UniProt P35368); assay: Radioligand binding, [3H]prazosin, cloned human α1B adrenergic receptor
T1 construct: The entire coding region of α1B (1563 bp); expressed in transfected cells
T1 sequence (P35368 1-520): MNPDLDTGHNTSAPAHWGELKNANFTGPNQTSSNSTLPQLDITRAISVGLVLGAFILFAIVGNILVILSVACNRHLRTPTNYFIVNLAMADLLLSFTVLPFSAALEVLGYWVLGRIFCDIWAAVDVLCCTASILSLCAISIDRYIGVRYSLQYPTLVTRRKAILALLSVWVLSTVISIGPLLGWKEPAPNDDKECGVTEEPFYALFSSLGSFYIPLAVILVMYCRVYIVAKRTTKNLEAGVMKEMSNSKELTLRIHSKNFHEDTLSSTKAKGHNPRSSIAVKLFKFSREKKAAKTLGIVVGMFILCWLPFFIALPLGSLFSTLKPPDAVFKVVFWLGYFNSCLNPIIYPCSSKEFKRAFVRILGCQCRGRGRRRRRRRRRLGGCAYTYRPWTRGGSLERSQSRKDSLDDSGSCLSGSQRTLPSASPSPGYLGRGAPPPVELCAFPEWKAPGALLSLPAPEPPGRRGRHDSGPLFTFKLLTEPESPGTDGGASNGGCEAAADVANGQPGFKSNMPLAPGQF
How it was run: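 Membranes from stably transfected LM(tk−) cells, resuspended in 50 mM Tris-HCl, 1 mM MgCl2, 0.1% ascorbic acid, pH 7.5, were incubated with 0.5 nM [3H]prazosin for 20 min at 37° C. Nonspecific binding defined with 10 μM phentolamine; bound ligand separated by GF/B filtration.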

[2] = biological target: T2, α1C Human Adrenergic Receptor (Homo sapiens, UniProt P35348); assay: Radioligand binding, [3H]prazosin, cloned human α1C adrenergic receptor
T2 construct: The entire coding region of α1C (1401 bp); expressed in transfected cells
T2 sequence (P35348 1-466): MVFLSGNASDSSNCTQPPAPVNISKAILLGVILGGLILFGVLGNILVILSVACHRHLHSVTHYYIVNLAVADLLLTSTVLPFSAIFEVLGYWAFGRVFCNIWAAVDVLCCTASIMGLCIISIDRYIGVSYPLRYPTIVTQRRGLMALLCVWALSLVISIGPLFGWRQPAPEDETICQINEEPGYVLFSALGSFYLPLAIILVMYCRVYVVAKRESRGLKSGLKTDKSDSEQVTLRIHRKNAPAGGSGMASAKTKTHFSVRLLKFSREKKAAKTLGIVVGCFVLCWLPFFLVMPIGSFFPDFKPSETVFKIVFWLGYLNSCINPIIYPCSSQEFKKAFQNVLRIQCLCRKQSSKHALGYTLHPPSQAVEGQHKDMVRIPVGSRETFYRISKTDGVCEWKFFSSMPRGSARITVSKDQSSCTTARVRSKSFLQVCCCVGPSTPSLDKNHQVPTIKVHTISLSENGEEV
How it was run: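 LM(tk−) membranes (stable human α1C); [3H]prazosin 0.5 nM; 37° C., 20 min; Tris-HCl 50 mM/MgCl2 1 mM/ascorbate 0.1%, pH 7.5; NSB 10 μM phentolamine; GF/B filtration.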

α2B receptor = biological target: T3, α2B receptor (Homo sapiens, UniProt P18089); assay: Competition binding, [3H]rauwolscine, human α2B receptor
T3 construct: host or cells: LM(tk-) cells, line L-NGC-α2B
T3 sequence (P18089 1-450): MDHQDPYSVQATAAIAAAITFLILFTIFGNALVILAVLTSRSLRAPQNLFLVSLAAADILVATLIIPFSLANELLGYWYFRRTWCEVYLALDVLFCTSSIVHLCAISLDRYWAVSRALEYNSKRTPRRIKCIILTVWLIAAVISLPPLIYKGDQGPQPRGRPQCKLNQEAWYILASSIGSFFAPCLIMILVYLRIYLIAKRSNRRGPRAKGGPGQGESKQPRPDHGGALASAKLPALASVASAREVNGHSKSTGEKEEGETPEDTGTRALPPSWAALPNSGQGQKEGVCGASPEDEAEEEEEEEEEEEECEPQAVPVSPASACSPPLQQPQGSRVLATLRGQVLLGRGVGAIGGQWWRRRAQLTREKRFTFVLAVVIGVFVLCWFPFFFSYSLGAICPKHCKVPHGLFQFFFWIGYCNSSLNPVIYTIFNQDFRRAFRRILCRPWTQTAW
How it was run: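 Cell lysates from stably transfected LM(tk−) lines are resuspended in 25 mM glycylglycine (pH 7.6 at room temperature), incubated to equilibrium with 0.5 nM [3H]rauwolscine plus competitor, then filtered through GF/B filters; 10 μM phentolamine defines nonspecific binding.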

[3] = cloned human receptor in LM(tk-) cell membranes, SEM and n in lines below, read-out: pKi alpha-1 1b (converted)
[4] = cloned human receptor in LM(tk-) cell membranes, SEM and n in lines below, read-out: pKi alpha-1 1c (converted)
[5] = [3H]rauwolscine, LM(tk-) cell line L-NGC-α2B, SEM and n in lines below, read-out: pKi alpha-2 2b (converted)
[6] = cloned human receptor, LM(tk-) cell membranes, mean, read-out: PKi alpha-1 1b (converted)
[7] = cloned human receptor, LM(tk-) cell membranes, mean, read-out: PKi alpha-1 1c (converted)
[8] = [3H]rauwolscine, human receptor, LM(tk-) cell lysates, mean, read-out: PKi alpha-2 2b (converted)
[9] = cloned human receptor in LM(tk-) cell membranes, SEM and n in lines below

Q: What does the source list for `COC(=O)C1=C(C)NC(C)=C(C(=O)NCCCN2CCC(c3ccccc3)CC2)C1c1ccc(Cl)c([N+](=O)[O-])c1` (stereo not drawn) [Example 17, 4-(4-Chloro-3-nitrophenyl)-1,4-dihydro-3-methoxycarbonyl-2,6-dimethyl-5-(N-(3-(4-phenylpiperidin-1-yl)propyl)carboxamido)pyridine]?
A: Ki [1, 3]: 41.7 nM; Ki [2, 4]: 0.537 nM; Ki (α2B receptor; [5]): 141 nM

Q: For `CCC1=C(C(N)=O)C(c2ccc([N+](=O)[O-])cc2)C(C(=O)NCCCN2CCC(C(=O)OC)(c3ccccc3)CC2)=C(COCCN)N1` (stereo not drawn) [Example 234, 2-((2-Aminoethyl)oxy)methyl-5-carboxamido-6-ethyl-1,4-dihydro-3-(N-(3-(4-methoxycarbonyl-4-phenylpiperidin-1-yl)propyl)) carboxamido-4-(4-nitro)phenylpyridine], which Ki [1, 6] is on record?
A: The Ki was 1290 nM.

Q: And the Ki [2, 7]?
A: The Ki was 1.62 nM.

Q: And the Ki (α2B receptor; [8])?
A: The Ki was 4900 nM.

Q: `COC(=O)C1=C(C)NC(C)=C(C(=O)NCCCN2CCC(c3ccccc3)CC2)C1c1ccc(C)cc1` (stereo not drawn) [Example 31, 1,4-Dihydro-3-methoxycarbonyl-2,6-dimethyl-4-(4-methylphenyl)-5-(N-(3-(4-phenylpiperidin-1-yl)propyl)carboxamido)pyridine] was tested. Which Ki [1, 3] did it give?
A: The Ki was 20.4 nM.

Q: And the Ki [2, 4]?
A: Its Ki is 1.17 nM.

Q: What about the Ki (α2B receptor; [5]) of the same compound?
A: Its Ki is 138 nM.

Q: Which “pKi alpha-1 1b” value ([1]; cloned human α1B receptor, LM(tk−) cell membranes) does the source give for `CCC1=C(C(N)=O)C(c2ccc([N+](=O)[O-])cc2)C(C(=O)NCCCN2CCC(O)(c3ccccc3)CC2)=CN1CC.Cl.O` (stereo not drawn) [Example 101, 5-Carboxamido-1,6-diethyl-1,4-dihydro-3-{N-[3-(4-hydroxy-4-phenylpiperidin-1-yl)propyl]}carboxamido-4-(4-nitrophenyl)pyridine hydrochloride hydrate] here?
A: Its value is 6.22.

Q: What about the “pKi alpha-1 1c” value ([2]; cloned human α1C receptor, LM(tk−) cell membranes) of the same compound?
A: Its value is 8.54.

Q: And the “pKi alpha-2 2b” value (α2B receptor; [3H]rauwolscine, human α2B receptor, LM(tk−) cells)?
A: Its value is 6.18.

Q: Which Ki ([1]; PKi alpha-1 1b, cloned human receptor, LM(tk-) cell membranes, mean) does the source give for `CCC1=C(C(N)=O)C(c2ccc([N+](=O)[O-])cc2)C(C(=O)NCCCN2CCC(c3ccccc3)(c3ccccc3)CC2)=C(CCCCN)N1` (stereo not drawn) [Example 171, 2-(4-Aminobutyl)-5-carboxamido-6-ethyl-1,4-dihydro-4-(4-nitrophenyl)-3-{N-[3-(4,4-diphenylpiperidin-1-yl)propyl]}carboxamidopyridine] here?
A: Its Ki is 617 nM.

Q: And the Ki ([2]; PKi alpha-1 1c, cloned human receptor, LM(tk-) cell membranes, mean)?
A: Its Ki is 1.74 nM.

Q: What about the Ki (α2B receptor; PKi alpha-2 2b, [3H]rauwolscine, human receptor, LM(tk-) cell lysates, mean) of the same compound?
A: Its Ki is 2000 nM.

Q: How did the “pKi alpha-1 1b” value [1, 9] turn out when `CNC(=O)C1=C(C)NC(C)=C(C(=O)NCCCN2CCC(c3ccccc3)(c3ccccc3)CC2)C1c1ccc([N+](=O)[O-])cc1` (stereo not drawn) [Example 38, 1,4-Dihydro-2,6-dimethyl-5-(N-methyl)carboxamido-4-(4-nitrophenyl)-3-{N-[3-(4,4-diphenylpiperidin-1-yl)propyl]}carboxamidopyridine] was run?
A: The value was 6.38.

Q: And the “pKi alpha-1 1c” value [2, 9]?
A: Its value is 8.50.

Q: And the “pKi alpha-2 2b” value (α2B receptor)?
A: Its value is 6.04.

Q: What does the source list for `CCNC(=O)C1=C(CC)NC(COCCN)=C(C(=O)NCCCN2CCC(C(=O)OCC)(c3ccccc3)CC2)C1c1ccc([N+](=O)[O-])cc1` (stereo not drawn) [Example 192, 2-[(2-Aminoethoxy)methyl]-3-{N-[3-(4-ethoxycarbonyl-4-phenyl-piperidin-1-yl)propyl]}carboxamido-1,4-dihydro-6-ethyl-5-(N-ethyl)carboxamido-4-(4-nitrophenyl)pyridine]?
A: Ki [1, 6]: 1860 nM; Ki [2, 7]: 3.09 nM; Ki (α2B receptor; [8]): 6170 nM

Q: What does the source list for `CCC1=C(C(N)=O)C(c2ccc([N+](=O)[O-])cc2)C(C(=O)NCCCN2CCN(c3ccccc3)CC2)=C(CC)N1` (stereo not drawn) [Example 104, 5-Carboxamido-2,6-diethyl-1,4-dihydro-4-(4-nitrophenyl)-3-{N-[3-(4-phenylpiperazin-1-yl)propyl]}carboxamido-pyridine hydrochloride hydrate]?
A: Ki ([1]; cloned human α1B receptor, LM(tk−) cell membranes, read-out: pKi alpha-1 1b (converted)): 34.7 nM; Ki ([2]; cloned human α1C receptor, LM(tk−) cell membranes, read-out: pKi alpha-1 1c (converted)): 3.24 nM; Ki (α2B receptor; [3H]rauwolscine, human α2B receptor, LM(tk−) cells, read-out: pKi alpha-2 2b (converted)): 56.2 nM

Q: With `COC(=O)C1=C(C)NC(c2ccoc2)=C(C(=O)NCCCN2CCC(c3ccccc3)CC2)C1c1ccc([N+](=O)[O-])cc1` (stereo not drawn) [Example 65, 2-(Furan-3-yl)-1,4-dihydro-5-methoxycarbonyl-6-methyl-4-(4-nitrophenyl)-5-{N-[3-(4-phenylpiperidin-1-yl)propyl]}carboxamidopyridine hydrochloride hydrate] as the compound, how does the Ki [1, 3] read?
A: The Ki was 57.5 nM.

Q: And the Ki [2, 4]?
A: Its Ki is 1.05 nM.

Q: And the Ki (α2B receptor; [5])?
A: The Ki was 97.7 nM.

— patent US6608086B2, “Dihydropyridines and new uses thereof” (Synaptic Pharmaceutical Corporation, priority 1993, dated 2003)
